In PubChem BioAssay AID248 (DTP/NCI, 2004):
Where “and” joins values, the source holds several entries; their conditions need not be identical. Equal entries are not always repeated. Inconclusive results and toxic doses are left out. Cut-off read from the data, not from the text of the source: active = T/C of 150% or more; inactive = T/C below 125%.

Test system: L1210 leukemia ip in BDF1 mice, survival T/C
Assay: NCI In Vivo Anticancer Drug Screen. Data for tumor model L1210 Leukemia (intraperitoneal) in B6D2F1 (BDF1) mice
Conditions: endpoint: mean survival time, higher = longer survival
Method in brief: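 Antitumor effect is assessed in tumor-bearing animals. Survival in the compound arm is compared with a vehicle-dosed control arm and expressed as their quotient.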

[1] = dose: 100.0 mg/kg/injection, schedule: Q04DX003 (ip), vehicle: Klucel (hydroxypropylcellulose) (HPC)
[2] = dose: 200.0 mg/kg/injection, schedule: Q04DX003 (ip), vehicle: Klucel (hydroxypropylcellulose) (HPC)
[3] = dose: 100.0 mg/kg/injection, schedule: Q01DX009 (ip), vehicle: Klucel (hydroxypropylcellulose) (HPC)
[4] = dose: 200.0 mg/kg/injection, schedule: Q04DX002 (ip), vehicle: Klucel (hydroxypropylcellulose) (HPC)
[5] = dose: 400.0 mg/kg/injection, schedule: Q04DX002 (ip), vehicle: Klucel (hydroxypropylcellulose) (HPC)
[6] = dose: 100.0 mg/kg/injection, schedule: Q04DX002 (ip), vehicle: other
[7] = dose: 200.0 mg/kg/injection, schedule: Q04DX002 (ip), vehicle: other
[8] = dose: 400.0 mg/kg/injection, schedule: Q04DX002 (ip), vehicle: other
[9] = dose: 100.0 mg/kg/injection, schedule: Q01DX001 (ip), vehicle: saline with Tween-80
[10] = dose: 400.0 mg/kg/injection, schedule: Q01DX001 (ip), vehicle: saline with Tween-80
[11] = dose: 100.0 mg/kg/injection, schedule: Q04DX003 (ip), vehicle: saline
[12] = dose: 200.0 mg/kg/injection, schedule: Q04DX003 (ip), vehicle: saline
[13] = dose: 100.0 mg/kg/injection, schedule: Q01DX001 (ip), vehicle: saline
[14] = dose: 200.0 mg/kg/injection, schedule: Q01DX001 (ip), vehicle: saline
[15] = dose: 400.0 mg/kg/injection, schedule: Q01DX001 (ip), vehicle: saline
[16] = dose: 100.0 mg/kg/injection, schedule: Q01DX001 (ip), vehicle: carboxymethylcellulose (CMC)
[17] = dose: 200.0 mg/kg/injection, schedule: Q01DX001 (ip), vehicle: carboxymethylcellulose (CMC)
[18] = dose: 400.0 mg/kg/injection, schedule: Q01DX001 (ip), vehicle: carboxymethylcellulose (CMC)
[19] = dose: 50.0 mg/kg/injection, schedule: Q01DX001 (ip), vehicle: saline
[20] = dose: 100.0 mg/kg/injection, schedule: Q01DX009 (ip), vehicle: saline
[21] = dose: 25.0 mg/kg/injection, schedule: Q04DX002 (ip), vehicle: Klucel (hydroxypropylcellulose) (HPC)
[22] = dose: 50.0 mg/kg/injection, schedule: Q04DX002 (ip), vehicle: Klucel (hydroxypropylcellulose) (HPC)
[23] = dose: 100.0 mg/kg/injection, schedule: Q04DX002 (ip), vehicle: Klucel (hydroxypropylcellulose) (HPC)
[24] = dose: 400.0 mg/kg/injection, schedule: Q04DX003 (ip), vehicle: saline

Measured: T/C

CC(=O)OC1COC(NC(=O)NCCCl)C(OC(C)=O)C1OC(C)=O (stereo not given)
inactive: [1] 109 % of control | [2] 103 % of control | dose: 400.0 mg/kg/injection, schedule: Q04DX003 (ip), vehicle: Klucel (hydroxypropylcellulose) (HPC) 103 % of control

CCCCCCCCCCCCCCCCCCNC(=O)Nc1nccs1
inactive: [3] 96 % of control | dose: 150.0 mg/kg/injection, schedule: Q01DX009 (ip), vehicle: Klucel (hydroxypropylcellulose) (HPC) 86 % of control | [4] 94 % of control | dose: 225.0 mg/kg/injection, schedule: Q01DX009 (ip), vehicle: Klucel (hydroxypropylcellulose) (HPC) 91 % of control | dose: 335.0 mg/kg/injection, schedule: Q01DX009 (ip), vehicle: Klucel (hydroxypropylcellulose) (HPC) 96 % of control | [5] 87 % of control

CCOC(=O)c1cnc(=O)n(Cc2ccccc2)c1N
inactive: [6] 98 % of control | [7] 95 % of control | [8] 98 % of control

C(=C/[PH+](c1ccccc1)c1ccccc1)/[PH+](c1ccccc1)c1ccccc1.C(=C/[PH+](c1ccccc1)c1ccccc1)/[PH+](c1ccccc1)c1ccccc1.[O-][Cl+3]([O-])([O-])O.[Rh]
inactive: [9] 92 % of control | [10] 89 % of control

CC/C(=N/N(C)C)c1ccccc1
inactive: [11] 96 % of control | [12] 93 % of control

O=c1[nH]c(=O)n(C2OC(CO)C(O)C2O)c2ccccc12 (stereo not given)
inactive: [13] 102 % of control | [14] 93 % of control | [15] 93 % of control

COc1ccc(C2NCCCC2c2ccccc2)cc1 (stereo not given)
inactive: [16] 102 % of control | [17] 94 % of control | [18] 110 % of control

O=C1NC23CC=CCC12CCCCCC3 (stereo not given)
inactive: [6] 93 % of control | [7] 90 % of control | [8] 86 % of control

CSc1ccc(C2NC(=O)NC2=O)cc1 (stereo not given)
inactive: [19] 102 % of control | [13] 100 % of control | [14] 96 % of control | [15] 102 % of control

CNC(=S)n1ncnc1N
inactive: dose: 25.0 mg/kg/injection, schedule: Q01DX009 (ip), vehicle: saline 102 % of control | dose: 50.0 mg/kg/injection, schedule: Q01DX009 (ip), vehicle: saline 114 % of control | [20] 109 % of control | [11] 104 % of control

O=C1c2ccccc2C(=O)N1Cc1ncn[nH]1
inactive: [9] 100 % of control | dose: 200.0 mg/kg/injection, schedule: Q01DX001 (ip), vehicle: saline with Tween-80 96 % of control | [10] 91 % of control

[Cl][Pt+2]([Cl])([Cl])[Cl].c1ccc(C2CC[N-]CC2)cc1.c1ccc(C2CC[N-]CC2)cc1
inactive: dose: 50.0 mg/kg/injection, schedule: Q01DX009 (ip), vehicle: water 101 % of control | dose: 100.0 mg/kg/injection, schedule: Q01DX009 (ip), vehicle: water 102 % of control | dose: 100.0 mg/kg/injection, schedule: Q04DX003 (ip), vehicle: water 105 % of control | dose: 200.0 mg/kg/injection, schedule: Q04DX003 (ip), vehicle: water 103 % of control

C=CS(=O)(=O)CCc1ccccc1
inactive: dose: 100.0 mg/kg/injection, schedule: Q04DX002 (ip), vehicle: saline with Tween-80 115 % of control | dose: 200.0 mg/kg/injection, schedule: Q04DX002 (ip), vehicle: saline with Tween-80 102 % of control | dose: 400.0 mg/kg/injection, schedule: Q04DX002 (ip), vehicle: saline with Tween-80 91 % of control

Oc1ccc(-c2cc3c(O)ccc(O)c3[nH]2)cc1O
inactive: [21] 86 % of control | [22] 93 % of control | [23] 89 % of control

COCC(=N)C(C#N)(OC)C(=O)c1ccccc1 (stereo not given)
inactive: dose: 75.0 mg/kg/injection, schedule: Q01DX001 (ip), vehicle: other 101 % of control | dose: 150.0 mg/kg/injection, schedule: Q01DX001 (ip), vehicle: other 90 % of control

CN(C)CCNC(=O)N(C)C
inactive: [20] 95 % of control | [11] 92 % of control | dose: 200.0 mg/kg/injection, schedule: Q01DX009 (ip), vehicle: saline 98 % of control | [12] 100 % of control | dose: 400.0 mg/kg/injection, schedule: Q01DX009 (ip), vehicle: saline 102 % of control | [24] 97 % of control

O=C(NC1CCCCC1c1ccccc1)c1ccccc1 (stereo not given)
inactive: dose: 75.0 mg/kg/injection, schedule: Q01DX001 (ip), vehicle: carboxymethylcellulose (CMC) 97 % of control and 95 % of control | dose: 150.0 mg/kg/injection, schedule: Q01DX001 (ip), vehicle: carboxymethylcellulose (CMC) 97 % of control and 91 % of control | dose: 300.0 mg/kg/injection, schedule: Q01DX001 (ip), vehicle: carboxymethylcellulose (CMC) 94 % of control and 89 % of control

O=C1OCC/C1=C\N1CCCCC1
inactive: [21] 113 % of control | [22] 98 % of control | [23] 98 % of control and 101 % of control

COc1cc(N=O)ccc1O
inactive: dose: 50.0 mg/kg/injection, schedule: Q01DX009 (ip), vehicle: Klucel (hydroxypropylcellulose) (HPC) 106 % of control | [3] 103 % of control | dose: 200.0 mg/kg/injection, schedule: Q01DX009 (ip), vehicle: Klucel (hydroxypropylcellulose) (HPC) 100 % of control

O=C(CCN(Cc1ccccc1)Cc1ccccc1)c1csc2ccccc12
inactive: [16] 96 % of control | [17] 89 % of control | [18] 94 % of control

OCC1C=CCC=C1
inactive: [11] 100 % of control | [12] 98 % of control | [24] 93 % of control

O=C(O)C(Sc1ccc(Cl)cc1)Sc1ccc(Cl)cc1
inactive: dose: 50.0 mg/kg/injection, schedule: Q04DX003 (ip), vehicle: Klucel (hydroxypropylcellulose) (HPC) 103 % of control | [1] 103 % of control | [2] 95 % of control

Cc1ccc(S(=O)(=O)C2CCCC2Cl)cc1 (stereo not given)
inactive: [16] 109 % of control | [13] 107 % of control | [17] 104 % of control | [14] 104 % of control | [18] 104 % of control | [15] 87 % of control

Cc1cccc[n+]1CC(=O)c1ccccc1
inactive: [11] 94 % of control

O=C(O)c1ccc(F)cc1F
inactive: [23] 121 % of control | [4] 105 % of control | [5] 98 % of control

NC(=O)c1cccc([N+](=O)[O-])c1
inactive: dose: 100.0 mg/kg/injection, schedule: Q04DX003 (ip), vehicle: saline with Tween-80 101 % of control | dose: 200.0 mg/kg/injection, schedule: Q04DX003 (ip), vehicle: saline with Tween-80 95 % of control | dose: 400.0 mg/kg/injection, schedule: Q04DX003 (ip), vehicle: saline with Tween-80 93 % of control

Cc1ccc(NC2CNC(=O)NC2=O)cc1C (stereo not given)
inactive: dose: 100.0 mg/kg/injection, schedule: Q01DX Z (ip), vehicle: saline 91 % of control | dose: 200.0 mg/kg/injection, schedule: Q01DX Z (ip), vehicle: saline 87 % of control

O=C(O)C1(NO)CCCC1
inactive: [19] 102 % of control | [13] 121 % of control | [15] 110 % of control
